Each block holds one molecule with its values, some of them ahead of it.
Key:
K562 cells = experiment: Cell death assay, Experiment 1 (live cells counted by trypan blue); type: cell-based; conditions: Homo sapiens, 100 nM, 48 hours, read-out: % live cells (vs control)

Compound: Cc1ccc(C(=O)Nc2ccc(CN3CCN(C)CC3)c(C(F)(F)F)c2)cc1C#Cc1cnc2cccnn12 [AP-24534, reference compound]
- viability at 0.1 µM (K562 cells): 10.1%

Compound: Cc1cn(-c2ccc3nc(-c4ccc(C)c(C#Cc5cnc6cccnn56)c4)[nH]c3c2)cn1 [Compound 11, 3-(2-(2-Methyl-5-(6-(4-methyl-1H-imidazol-1-yl)-1H-benzo[d]imidazol-2-yl)phenyl)ethynyl)imidazo[1,2-b]pyridazine]
- melting point: 182 to 184 °C

Compound: Cc1ccc(C(=O)Nc2ccc(CN3CCN(C)CC3)c(C(F)(F)F)c2)cc1C#Cc1ccc(NC(C)C)nn1 [Compound 14, 3-(2-(6-(Isopropylamino)pyridazin-3-yl)ethynyl)-4-methyl-N-(4-((4-methylpiperazin-1-yl)methyl)-3-(trifluoromethyl)phenyl)benzamide]
- viability at 0.1 µM (K562 cells): 8.37%
- melting point: 67 to 68 °C

Compound: CN1CCN(Cc2ccc(NC(=O)c3ccc(Cl)c(C#Cc4ccc(NC5CCC5)nn4)c3)cc2C(F)(F)F)CC1 [Compound 16, 4-Chloro-3-(2-(6-(cyclobutylamino)pyridazin-3-yl)ethynyl)-N-(4-((4-methylpiperazin-1-yl)methyl)-3-(trifluoromethyl)phenyl)benzamide]
- viability at 0.1 µM (K562 cells): 8.46%
- melting point: 132 to 133 °C

Compound: CC(C)Nc1ccc(C#Cc2cc(C(=O)Nc3ccc(CN4CCN(C)CC4)c(C(F)(F)F)c3)ccc2Cl)nn1 [Compound 17]
- viability at 0.1 µM (K562 cells): 18.3%
- melting point: 133 to 134 °C

Compound: Cc1cn(-c2ccc(NC(=O)c3ccc(C)c(C#Cc4ccc(NC5CC5)nn4)c3)cc2C(F)(F)F)cn1 [Compound 18, 3-(2-(6-(Cyclopropylamino)pyridazin-3-yl)ethynyl)-4-methyl-N-(4-(4-methyl-1H-imidazol-1-yl)-3-(trifluoromethyl)phenyl)benzamide]
- melting point: 125 to 126 °C

Compound: Cc1cn(-c2ccc(NC(=O)c3ccc(C)c(C#Cc4ccc(NC(C)C)nn4)c3)cc2C(F)(F)F)cn1 [Compound 19, 3-(2-(6-(Isopropylamino)pyridazin-3-yl)ethynyl)-4-methyl-N-(4-(4-methyl-1H-imidazol-1-yl)-3-(trifluoromethyl)phenyl)benzamide]
- melting point: 141 to 143 °C

Compound: Cc1cn(-c2ccc(NC(=O)c3ccc(Cl)c(C#Cc4ccc(NC5CC5)nn4)c3)cc2C(F)(F)F)cn1 [Compound 20, 4-Chloro-3-(2-(6-(cyclopropylamino)pyridazin-3-yl)ethynyl)-N-(4-(4-methyl-1H-imidazol-1-yl)-3-(trifluoromethyl)phenyl)benzamide]
- melting point: 150 to 152 °C

Compound: Cc1cn(-c2ccc(NC(=O)c3ccc(Cl)c(C#Cc4ccc(NC5CCC5)nn4)c3)cc2C(F)(F)F)cn1 [Compound 21, 4-Chloro-3-(2-(6-(cyclobutylamino)pyridazin-3-yl)ethynyl)-N-(4-(4-methyl-1H-imidazol-1-yl)-3-(trifluoromethyl)phenyl)benzamide]
- melting point: 153 to 155 °C

Compound: Cc1cn(-c2ccc(NC(=O)c3ccc(Cl)c(C#Cc4ccc(NC(C)C)nn4)c3)cc2C(F)(F)F)cn1 [Compound 22]
- melting point: 133 to 135 °C

Compound: Cc1cn(-c2cc(NC(=O)c3ccc(C)c(C#Cc4ccc(NC(C)C)nn4)c3)cc(C(F)(F)F)c2)cn1 [Compound 25, 3-(2-(6-(Isopropylamino)pyridazin-3-yl)ethynyl)-4-methyl-N-(3-(4-methyl-1H-imidazol-1-yl)-5-(trifluoromethyl)phenyl)benzamide]
- melting point: 192 to 194 °C

Compound: Cc1cn(-c2cc(NC(=O)c3ccc(Cl)c(C#Cc4ccc(NC5CCC5)nn4)c3)cc(C(F)(F)F)c2)cn1 [Compound 27, 4-Chloro-3-(2-(6-(cyclobutylamino)pyridazin-3-yl)ethynyl)-N-(3-(4-methyl-1H-imidazol-1-yl)-5-(trifluoromethyl)phenyl)benzamide]
- melting point: 225 to 227 °C

The next lines start with results.

- melting point: 148 to 150 °C
Compound: Cc1ccc(-c2nc3ccc(CN4CCN(C)CC4)cc3[nH]2)cc1C#Cc1ccc(NC2CCC2)nn1 [Compound 1, N-Cyclobutyl-6-(2-(2-methyl-5-(6-((4-methylpiperazin-1-yl)methyl)-1H-benzo[d]imidazol-2-yl)phenyl)ethynyl)pyridazin-3-amine]

- melting point: 145 to 146 °C
Compound: Cc1ccc(-c2nc3ccc(CN4CCN(C)CC4)cc3[nH]2)cc1C#Cc1ccc(NC2CC2)nn1 [Compound 2, N-Cyclopropyl-6-(2-(2-methyl-5-(6-((4-methylpiperazin-1-yl)methyl)-1H-benzo[d]imidazol-2-yl)phenyl)ethynyl)pyridazin-3-amine]

- melting point: 129 to 130 °C
Compound: Cc1ccc(-c2nc3ccc(CN4CCN(C)CC4)cc3[nH]2)cc1C#Cc1ccc(NC(C)C)nn1 [Compound 4, N-Isopropyl-6-(2-(2-methyl-5-(6-((4-methylpiperazin-1-yl)methyl)-1H-benzo[d]imidazol-2-yl)phenyl)ethynyl)pyridazin-3-amine]

- melting point: 136 to 137 °C
Compound: Cc1ccc(-c2nc3ccc(CN4CCN(C)CC4)cc3[nH]2)cc1C#Cc1cnc(NC2CC2)nc1 [Compound 5, N-Cyclopropyl-5-(2-(2-methyl-5-(6-((4-methylpiperazin-1-yl)methyl)-1H-benzo[d]imidazol-2-yl)phenyl)ethynyl)pyrimidin-2-amine]
- viability at 0.1 µM (K562 cells): 10.8%

- melting point: 156 to 157 °C
Compound: CN1CCN(Cc2ccc3nc(-c4ccc(Cl)c(C#Cc5cnc6cccnn56)c4)[nH]c3c2)CC1 [Compound 6, 3-(2-(2-Chloro-5-(6-((4-methylpiperazin-1-yl)methyl)-1H-benzo[d]imidazol-2-yl)phenyl)ethynyl)imidazo[1,2-b]pyridazine]
- viability at 0.1 µM (K562 cells): 10.1%

- melting point: 130 to 131 °C
Compound: CN1CCN(Cc2ccc3nc(-c4ccc(Cl)c(C#Cc5ccc(NC6CC6)nn5)c4)[nH]c3c2)CC1 [Compound 7, 6-(2-(2-Chloro-5-(6-((4-methylpiperazin-1-yl)methyl)-1H-benzo[d]imidazol-2-yl)phenyl)ethynyl)-N-cyclopropylpyridazin-3-amine]

- melting point: 161 to 163 °C
Compound: CN1CCN(Cc2ccc3nc(-c4ccc(Cl)c(C#Cc5ccc(NC6CCC6)nn5)c4)[nH]c3c2)CC1 [Compound 8, 6-(2-(2-Chloro-5-(6-((4-methylpiperazin-1-yl)methyl)-1H-benzo[d]imidazol-2-yl)phenyl)ethynyl)-N-cyclobutylpyridazin-3-amine]

- melting point: 127 to 128 °C
Compound: CC(C)Nc1ccc(C#Cc2cc(-c3nc4ccc(CN5CCN(C)CC5)cc4[nH]3)ccc2Cl)nn1 [Compound 9, 6-(2-(2-Chloro-5-(6-((4-methylpiperazin-1-yl)methyl)-1H-benzo[d]imidazol-2-yl)phenyl)ethynyl)-N-isopropylpyridazin-3-amine]

- melting point: 160 to 162 °C
Compound: CN1CCN(Cc2ccc3nc(-c4ccc(Cl)c(C#Cc5cnc(NC6CC6)nc5)c4)[nH]c3c2)CC1 [Compound 10, 5-(2-(2-Chloro-5-(6-((4-methylpiperazin-1-yl)methyl)-1H-benzo[d]imidazol-2-yl)phenyl)ethynyl)-N-cyclopropylpyrimidin-2-amine]
- viability at 0.1 µM (K562 cells): 11%

- melting point: 133 to 134 °C
Compound: CN1CCN(Cc2ccc(NC(=O)c3ccc(Cl)c(C#Cc4ccc(NC5CC5)nn4)c3)cc2C(F)(F)F)CC1 [Compound 15, 4-Chloro-3-(2-(6-(cyclopropylamino)pyridazin-3-yl)ethynyl)-N-(4-((4-methylpiperazin-1-yl)methyl)-3-(trifluoromethyl)phenyl)benzamide]
- viability at 0.1 µM (K562 cells): 17%

From patent US9174996B2, “Protein kinase inhibitors” (Astar Biotech LLC, priority 2012, dated 2015)
